Measured values from US20250059207A1, “6,6-FUSED HETEROCYCLIC COMPOUNDS AS METTL3 INHIBITORS” (858 Therapeutics, Inc., priority 2021, published 2025).
Where two headings read alike, the source gives them in different places.

Tested on: MOLM-13 cells
Assay: Viability assay in MOLM-13 cells (CellTiter-Glo 2.0)
Assay type: cell-based, human
Conditions: read-out: MOLM-13 IC50 (cell viability)
[1] = MOLM-13 human AML cells, 72 hours, CellTiter-Glo 2.0

Description: Effects of test compounds on the proliferation and viability of human AML cells was evaluated using the MOLM-13 cell line (AddexBio Technologies cat. no. C0003003). […] Test compounds or controls (Bortezomib or DMSO) diluted in 2% DMSO/media were added to each well for final concentrations of 0.2% DMSO and 0.1-1 μM Bortezomib. The cells were incubated for 72 hours at 37° C. and 5% CO2. At the end of the 72 hour incubation, plates were removed from the incubator, cooled to room temperature and equal volume of CellTiter-Glo 2.0 (Promega) added to each well. After mixing and incubating the plate at room temperature for 10 minutes the luminescence was read using a plate reader. […] Concentration-response-curves and IC50 values were generated using Collaborative Drug Discovery software.

SMILES | IC50 [1] [µM] | IC50 (Homo sapiens, MOLM-13, 72 h) [µM]
CCOc1cncc2c(=O)n(Cc3cn4cc(C)ccc4n3)ccc12 [Compound 3, 5-ethoxy-2-((6-methylimidazo[1,2-a]pyridin-2-yl)methyl)-2,7-naphthyridin-1(2H)-one] | > 10 | –
Cc1ccc2nc(Cn3ccc4c(N5CC(c6ccccc6)C5)cncc4c3=O)cn2c1 [Compound 7, 2-((6-methylimidazo[1,2-a]pyridin-2-yl)methyl)-5-(3-phenylazetidin-1-yl) 2,7-naphthyridin-1(2H)-one] | > 10 | –
Cc1ccc2nc(Cn3ccc4c(N5CCC5)cncc4c3=O)cn2c1 [Compound 9, 5-(azetidin-1-yl)-2-((6-methylimidazo[1,2-a]pyridin-2-yl)methyl)-2,7-naphthyridin-1(2H)-one] | – | > 10
Cc1ccc2nc(Cn3ccc4c(N5CCCCC5)cncc4c3=O)cn2c1 [Compound 10, 2-((6-methylimidazo[1,2-a]pyridin-2-yl)methyl)-5-(piperidin-1-yl)-2,7-naphthyridin-1(2H)-one] | > 10 | –
Cc1ccc2nc(Cn3ccc4c(C5CC5)cncc4c3=O)cn2c1 [Compound 11, 5-cyclopropyl-2-((6-methylimidazo[1,2-a]pyridin-2-yl)methyl)-2,7-naphthyridin-1(2H)-one] | > 10 | –
Cc1ccc2nc(Cn3ccc4c(-c5cc[nH]n5)cncc4c3=O)cn2c1 [Compound 15, 2-((6-methylimidazo[1,2-a]pyridin-2-yl)methyl)-5-(1H-pyrazol-3-yl)-2,7-naphthyridin-1(2H)-one] | > 10 | –
Cc1ccc2nc(Cn3ccc4c(-c5cccnc5)cncc4c3=O)cn2c1 [Compound 17, 2-((6-methylimidazo[1,2-a]pyridin-2-yl)methyl)-5-(pyridin-3-yl)-2,7-naphthyridin-1(2H)-one] | > 10 | –
CNC(=O)c1ccc(-c2cncc3c(=O)n(Cc4cn5cc(C)ccc5n4)ccc23)cc1 [Compound 26, N-methyl-4-(7-((6-methylimidazo[1,2-a]pyridin-2-yl)methyl)-8-oxo-7,8-dihydro-2,7-naphthyridin-4-yl)benzamide] | > 10 | –
Cc1ccc2nc(Cn3ccc4c(-c5ccccc5C#N)cncc4c3=O)cn2c1 [Compound 28, 2-(7-((6-methylimidazo[1,2-a]pyridin-2-yl)methyl)-8-oxo-7,8-dihydro-2,7-naphthyridin-4-yl)benzonitrile] | > 10 | –
Cc1ccc2nc(Cn3ccc4c(-c5c(F)cccc5F)cncc4c3=O)cn2c1 [Compound 29, 5-(2,6-difluorophenyl)-2-((6-methylimidazo[1,2-a]pyridin-2-yl)methyl)-2,7-naphthyridin-1(2H)-one] | > 10 | –
Cc1ccc2nc(Cn3ccc4c(-c5c(C)cccc5F)cncc4c3=O)cn2c1 [Compound 30, 5-(2-fluoro-6-methylphenyl)-2-((6-methylimidazo[1,2-a]pyridin-2-yl)methyl)-2,7-naphthyridin-1(2H)-one] | > 10 | –
CC(=O)Nc1ccc(-c2cncc3c(=O)n(Cc4cn5cc(C)ccc5n4)ccc23)cn1 [Compound 38, N-(5-(7-((6-methylimidazo[1,2-a]pyridin-2-yl)methyl)-8-oxo-7,8-dihydro-2,7-naphthyridin-4-yl)pyridin-2-yl)acetamide] | > 10 | –
Cc1ccc2nc(Cn3ccc4c(C#CC5CC5)cncc4c3=O)cn2c1 [Compound 46, 5-(cyclopropylethynyl)-2-((6-methylimidazo[1,2-a]pyridin-2-yl)methyl)-2,7-naphthyridin-1(2H)-one] | > 10 | –
Cc1ccc2nc(Cn3cc(C)c4ccncc4c3=O)cn2c1 [Compound 49, 4-methyl-2-((6-methylimidazo[1,2-a]pyridin-2-yl)methyl)-2,7-naphthyridin-1(2H)-one] | 1 to 10 | –
O=c1c2cnccc2ccn1Cc1cn2cc(CNCc3ccccc3)ccc2n1 [Compound 69, 2-((6-((benzylamino)methyl)imidazo[1,2-a]pyridin-2-yl)methyl)-2,7-naphthyridin-1(2H)-one] | – | > 10
